What was measured:
Experiment in all cases: DiscoverX scanEDGE kinase panel
Assay type in all cases: binding
Details in all cases: Cmpd Conc 1000 nM, read-out: % Ctrl
AURKA = target: T1, AURKA (Homo sapiens, UniProt O14965)
T1 construct: purchased DiscoverX (DiscoveRx) KINOMEscan scanEDGE / KdELECT
Description: (§1) We hypothesized that inhibitors of the normal and flipped modes would display distinct selectivity profiles.
(§2) 1. 16 and 21 kinome selectivity data
(§3) (P – phosphorylated; nP – nonphosphorylated; % Ctrl values show the % of DNAEtagged
(§4) kinase which was not displaced from a solid supported ligand by a test compound relative to
(§5) untreated control, quantified by qPCR).
(§6) Please note: ALKs 1, 2, 3, 4, 5 and 6 are listed by their gene symbols: ACVRL1 (ALK1), ACVR1
(§7) (ALK2), BMPR1A (ALK3), ACVR1B (ALK4), TGFBR1 (ALK5) and BMPR1B (ALK6)
(§8) Cmpd DiscoverX Gene Symbol Entrez Gene Symbol % Ctrl Cmpd Conc (nM)

PAK4 = target: T2, PAK4 (Homo sapiens, UniProt O96013)
T2 construct: purchased DiscoverX (DiscoveRx) KINOMEscan scanEDGE / KdELECT
Description: as §1, §2, §3, §4, §5, §6, §7, §8

AKT2 = target: T3, AKT2 (Homo sapiens, UniProt P31751)
T3 construct: purchased DiscoverX (DiscoveRx) KINOMEscan scanEDGE / KdELECT
Description: as §1, §2, §3, §4, §5, §6, §7, §8

INSR = target: T4, INSR (Homo sapiens, UniProt P06213)
T4 construct: purchased DiscoverX (DiscoveRx) KINOMEscan scanEDGE / KdELECT
Description: as §1, §2, §3, §4, §5, §6, §7, §8

IKKEbeta = target: T5, IKKEbeta (Homo sapiens, UniProt O14920)
T5 construct: purchased DiscoverX (DiscoveRx) KINOMEscan scanEDGE / KdELECT
Description: as §1, §2, §3, §4, §5, §6, §7, §8

SNARK = target: T6, SNARK (Homo sapiens, UniProt Q9H093)
T6 construct: purchased DiscoverX (DiscoveRx) KINOMEscan scanEDGE / KdELECT
Description: as §1, §2, §3, §4, §5, §6, §7, §8

RIPK2 = target: T7, RIPK2 (Homo sapiens, UniProt O43353)
T7 construct: purchased DiscoverX (DiscoveRx) KINOMEscan scanEDGE / KdELECT
T7 sequence (O43353 whole entry): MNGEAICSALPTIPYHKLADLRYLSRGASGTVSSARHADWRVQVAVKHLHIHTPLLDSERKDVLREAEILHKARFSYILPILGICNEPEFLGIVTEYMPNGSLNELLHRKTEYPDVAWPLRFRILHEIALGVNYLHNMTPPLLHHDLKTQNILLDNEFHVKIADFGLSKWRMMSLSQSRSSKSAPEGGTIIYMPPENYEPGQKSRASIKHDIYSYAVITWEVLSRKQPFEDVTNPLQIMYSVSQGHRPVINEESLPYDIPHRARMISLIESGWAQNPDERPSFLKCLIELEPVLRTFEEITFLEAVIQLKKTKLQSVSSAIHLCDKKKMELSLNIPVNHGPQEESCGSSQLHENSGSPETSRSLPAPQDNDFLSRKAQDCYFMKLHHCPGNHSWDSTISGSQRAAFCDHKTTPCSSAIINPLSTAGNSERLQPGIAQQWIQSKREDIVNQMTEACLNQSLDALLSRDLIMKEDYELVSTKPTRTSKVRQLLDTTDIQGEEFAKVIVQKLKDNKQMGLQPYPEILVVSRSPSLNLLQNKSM
Description: as §1, §2, §3, §4, §5, §6, §7, §8

CHEK1 = target: T8, CHEK1 (Homo sapiens, UniProt O14757)
T8 construct: purchased DiscoverX (DiscoveRx) KINOMEscan scanEDGE / KdELECT
T8 sequence (O14757 whole entry): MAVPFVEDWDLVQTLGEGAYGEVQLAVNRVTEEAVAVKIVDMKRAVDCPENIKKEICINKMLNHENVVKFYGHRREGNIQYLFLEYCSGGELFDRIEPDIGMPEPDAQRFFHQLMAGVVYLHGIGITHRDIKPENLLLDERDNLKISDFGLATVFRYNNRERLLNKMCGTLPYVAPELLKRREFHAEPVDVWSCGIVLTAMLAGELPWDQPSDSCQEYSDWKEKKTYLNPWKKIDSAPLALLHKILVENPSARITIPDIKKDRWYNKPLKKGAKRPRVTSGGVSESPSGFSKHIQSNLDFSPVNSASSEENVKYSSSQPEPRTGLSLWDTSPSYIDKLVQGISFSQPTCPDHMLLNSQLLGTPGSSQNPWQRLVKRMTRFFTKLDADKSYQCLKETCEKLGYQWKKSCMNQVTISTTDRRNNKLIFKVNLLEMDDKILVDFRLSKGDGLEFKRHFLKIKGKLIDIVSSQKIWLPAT
Description: as §1, §2, §3, §4, §5, §6, §7, §8

MAPKAPK2 = target: T9, MAPKAPK2 (Homo sapiens, UniProt P49137)
T9 construct: purchased DiscoverX (DiscoveRx) KINOMEscan scanEDGE / KdELECT
Description: as §1, §2, §3, §4, §5, §6, §7, §8

PIK3CA = target: T10, PIK3CA (Homo sapiens, UniProt P42336)
T10 construct: purchased DiscoverX (DiscoveRx) KINOMEscan scanEDGE / KdELECT
Description: as §1, §2, §3, §4, §5, §6, §7, §8

PIM2 = target: T11, PIM2 (Homo sapiens, UniProt Q9P1W9)
T11 construct: purchased DiscoverX (DiscoveRx) KINOMEscan scanEDGE / KdELECT
T11 sequence (Q9P1W9 whole entry): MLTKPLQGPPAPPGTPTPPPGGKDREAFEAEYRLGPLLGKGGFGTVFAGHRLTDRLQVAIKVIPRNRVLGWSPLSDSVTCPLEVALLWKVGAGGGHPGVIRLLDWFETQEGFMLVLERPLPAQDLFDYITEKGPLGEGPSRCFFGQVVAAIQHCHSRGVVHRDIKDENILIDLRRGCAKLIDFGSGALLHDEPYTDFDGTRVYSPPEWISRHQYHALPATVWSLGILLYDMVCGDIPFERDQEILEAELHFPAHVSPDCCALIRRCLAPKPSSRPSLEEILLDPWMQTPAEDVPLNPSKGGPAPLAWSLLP
Description: as §1, §2, §3, §4, §5, §6, §7, §8

BRAF(V600E) = target: T12, BRAF(V600E) (Homo sapiens, UniProt P15056, V600E)
T12 construct: purchased DiscoverX (DiscoveRx) KINOMEscan scanEDGE / KdELECT
Description: as §1, §2, §3, §4, §5, §6, §7, §8

SRC = target: T13, SRC (Homo sapiens, UniProt P12931)
T13 construct: purchased DiscoverX (DiscoveRx) KINOMEscan scanEDGE / KdELECT
Description: as §1, §2, §3, §4, §5, §6, §7, §8

PLK4 = target: T14, PLK4 (Homo sapiens, UniProt O00444)
T14 construct: purchased DiscoverX (DiscoveRx) KINOMEscan scanEDGE / KdELECT
Description: as §1, §2, §3, §4, §5, §6, §7, §8

EGFR = target: T15, EGFR (Homo sapiens, UniProt P00533)
T15 construct: purchased DiscoverX (DiscoveRx) KINOMEscan scanEDGE / KdELECT
Description: as §1, §2, §3, §4, §5, §6, §7, §8

[1] = target: T16, RSK2(Kin.Dom.1ENEterminal) (Homo sapiens, UniProt P51812)
T16 construct: RSK2(Kin.Dom.1ENEterminal); purchased DiscoverX (DiscoveRx) KINOMEscan scanEDGE / KdELECT
Description: as §1, §2, §3, §4, §5, §6, §7, §8

KIT(V559D,T670I) = target: T17, KIT(V559D,T670I) (Homo sapiens, UniProt P10721, T670I/V559D)
T17 construct: purchased DiscoverX (DiscoveRx) KINOMEscan scanEDGE / KdELECT
Description: as §1, §2, §3, §4, §5, §6, §7, §8

LCK = target: T18, LCK (Homo sapiens, UniProt P06239)
T18 construct: purchased DiscoverX (DiscoveRx) KINOMEscan scanEDGE / KdELECT
Description: as §1, §2, §3, §4, §5, §6, §7, §8

MET = target: T19, MET (Homo sapiens, UniProt P08581)
T19 construct: purchased DiscoverX (DiscoveRx) KINOMEscan scanEDGE / KdELECT
Description: as §1, §2, §3, §4, §5, §6, §7, §8

JAK2(JH1domain) = target: T20, JAK2(JH1domain) (Homo sapiens, UniProt O60674)
T20 construct: JAK2(JH1domain); purchased DiscoverX (DiscoveRx) KINOMEscan scanEDGE / KdELECT
Description: as §1, §2, §3, §4, §5, §6, §7, §8

CSNK1G2 = target: T21, CSNK1G2 (Homo sapiens, UniProt P78368)
T21 construct: purchased DiscoverX (DiscoveRx) KINOMEscan scanEDGE / KdELECT
Description: as §1, §2, §3, §4, §5, §6, §7, §8

CDK7 = target: T22, CDK7 (Homo sapiens, UniProt P50613)
T22 construct: purchased DiscoverX (DiscoveRx) KINOMEscan scanEDGE / KdELECT
T22 sequence (P50613 whole entry): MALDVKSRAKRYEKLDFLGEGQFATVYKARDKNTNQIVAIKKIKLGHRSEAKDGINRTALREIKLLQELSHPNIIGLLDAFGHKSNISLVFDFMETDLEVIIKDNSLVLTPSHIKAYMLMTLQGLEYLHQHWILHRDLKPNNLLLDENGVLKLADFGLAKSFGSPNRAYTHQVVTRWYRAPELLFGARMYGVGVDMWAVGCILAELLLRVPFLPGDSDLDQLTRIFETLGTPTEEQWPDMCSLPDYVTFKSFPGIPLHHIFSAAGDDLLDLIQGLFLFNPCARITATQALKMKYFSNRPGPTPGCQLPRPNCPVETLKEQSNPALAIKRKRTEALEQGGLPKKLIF
Description: as §1, §2, §3, §4, §5, §6, §7, §8

MEK2 = target: T23, MEK2 (Homo sapiens, UniProt P36507)
T23 construct: purchased DiscoverX (DiscoveRx) KINOMEscan scanEDGE / KdELECT
T23 sequence (P36507 whole entry): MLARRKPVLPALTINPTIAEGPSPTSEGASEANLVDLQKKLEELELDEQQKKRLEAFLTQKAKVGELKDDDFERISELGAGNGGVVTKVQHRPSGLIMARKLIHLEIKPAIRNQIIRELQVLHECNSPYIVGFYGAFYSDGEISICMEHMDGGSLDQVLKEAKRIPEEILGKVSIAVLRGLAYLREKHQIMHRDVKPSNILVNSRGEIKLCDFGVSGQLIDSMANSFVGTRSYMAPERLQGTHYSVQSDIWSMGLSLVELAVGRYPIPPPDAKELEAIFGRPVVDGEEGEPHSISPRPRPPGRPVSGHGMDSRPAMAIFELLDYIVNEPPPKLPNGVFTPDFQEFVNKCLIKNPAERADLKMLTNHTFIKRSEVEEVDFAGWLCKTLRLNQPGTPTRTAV
Description: as §1, §2, §3, §4, §5, §6, §7, §8

TRKA = target: T24, TRKA (Homo sapiens, UniProt P04629)
T24 construct: purchased DiscoverX (DiscoveRx) KINOMEscan scanEDGE / KdELECT
Description: as §1, §2, §3, §4, §5, §6, §7, §8

PDGFRB = target: T25, PDGFRB (Homo sapiens, UniProt P09619)
T25 construct: purchased DiscoverX (DiscoveRx) KINOMEscan scanEDGE / KdELECT
Description: as §1, §2, §3, §4, §5, §6, §7, §8

NEK7 = target: T26, NEK7 (Homo sapiens, UniProt Q8TDX7)
T26 construct: purchased DiscoverX (DiscoveRx) KINOMEscan scanEDGE / KdELECT
Description: as §1, §2, §3, §4, §5, §6, §7, §8

ERBB2 = target: T27, ERBB2 (Homo sapiens, UniProt P04626)
T27 construct: purchased DiscoverX (DiscoveRx) KINOMEscan scanEDGE / KdELECT
Description: as §1, §2, §3, §4, §5, §6, §7, §8

ACVR2A = target: T28, ACVR2A (Homo sapiens, UniProt P27037)
T28 construct: purchased DiscoverX (DiscoveRx) KINOMEscan scanEDGE / KdELECT
T28 sequence (P27037 20-513): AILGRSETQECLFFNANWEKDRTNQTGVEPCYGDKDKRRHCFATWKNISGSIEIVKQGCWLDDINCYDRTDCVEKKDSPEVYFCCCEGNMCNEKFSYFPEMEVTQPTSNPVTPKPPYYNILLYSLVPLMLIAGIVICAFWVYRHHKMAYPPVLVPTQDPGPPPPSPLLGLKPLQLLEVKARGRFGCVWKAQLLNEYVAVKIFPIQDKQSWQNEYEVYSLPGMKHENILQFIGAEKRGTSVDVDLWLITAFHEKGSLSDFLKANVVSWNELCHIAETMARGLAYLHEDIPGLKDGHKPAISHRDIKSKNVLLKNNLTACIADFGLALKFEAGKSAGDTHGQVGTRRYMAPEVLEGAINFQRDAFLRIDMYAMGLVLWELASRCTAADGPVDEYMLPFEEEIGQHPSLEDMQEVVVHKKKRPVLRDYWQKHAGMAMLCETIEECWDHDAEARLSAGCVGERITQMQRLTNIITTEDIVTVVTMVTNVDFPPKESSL
Description: as §1, §2, §3, §4, §5, §6, §7, §8

JNK3 = target: T29, JNK3 (Homo sapiens, UniProt P53779)
T29 construct: purchased DiscoverX (DiscoveRx) KINOMEscan scanEDGE / KdELECT
T29 sequence (P53779 whole entry): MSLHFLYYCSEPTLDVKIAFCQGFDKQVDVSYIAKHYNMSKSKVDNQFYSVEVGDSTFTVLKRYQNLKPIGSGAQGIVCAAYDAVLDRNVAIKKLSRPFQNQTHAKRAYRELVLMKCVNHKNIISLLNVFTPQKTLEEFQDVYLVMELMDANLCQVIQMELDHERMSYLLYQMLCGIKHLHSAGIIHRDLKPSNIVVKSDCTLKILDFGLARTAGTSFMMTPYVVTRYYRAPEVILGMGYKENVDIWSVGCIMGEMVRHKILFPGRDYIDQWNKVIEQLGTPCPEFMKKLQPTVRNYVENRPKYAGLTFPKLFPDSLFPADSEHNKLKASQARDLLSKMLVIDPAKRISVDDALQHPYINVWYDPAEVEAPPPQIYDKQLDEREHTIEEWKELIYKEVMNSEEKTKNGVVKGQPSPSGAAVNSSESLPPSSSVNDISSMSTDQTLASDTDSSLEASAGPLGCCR
Description: as §1, §2, §3, §4, §5, §6, §7, §8

TGFBR1 (ALK5) = target: T30, TGFBR1 (ALK5) (Homo sapiens, UniProt P36897)
T30 construct: purchased DiscoverX (DiscoveRx) KINOMEscan scanEDGE / KdELECT
Description: as §1, §2, §3, §4, §5, §6, §7, §8

ABL2 = target: T31, ABL2 (Homo sapiens, UniProt P42684)
T31 construct: purchased DiscoverX (DiscoveRx) KINOMEscan scanEDGE / KdELECT
Description: as §1, §2, §3, §4, §5, §6, §7, §8

MKNK2 = target: T32, MKNK2 (Homo sapiens, UniProt Q9HBH9)
T32 construct: purchased DiscoverX (DiscoveRx) KINOMEscan scanEDGE / KdELECT
Description: as §1, §2, §3, §4, §5, §6, §7, §8

AURKB = target: T33, AURKB (Homo sapiens, UniProt Q96GD4)
T33 construct: purchased DiscoverX (DiscoveRx) KINOMEscan scanEDGE / KdELECT
Description: as §1, §2, §3, §4, §5, §6, §7, §8

FYN = target: T34, FYN (Homo sapiens, UniProt P06241)
T34 construct: purchased DiscoverX (DiscoveRx) KINOMEscan scanEDGE / KdELECT
Description: as §1, §2, §3, §4, §5, §6, §7, §8

PIM1 = target: T35, PIM1 (Homo sapiens, UniProt P11309)
T35 construct: purchased DiscoverX (DiscoveRx) KINOMEscan scanEDGE / KdELECT
T35 sequence (P11309 whole entry): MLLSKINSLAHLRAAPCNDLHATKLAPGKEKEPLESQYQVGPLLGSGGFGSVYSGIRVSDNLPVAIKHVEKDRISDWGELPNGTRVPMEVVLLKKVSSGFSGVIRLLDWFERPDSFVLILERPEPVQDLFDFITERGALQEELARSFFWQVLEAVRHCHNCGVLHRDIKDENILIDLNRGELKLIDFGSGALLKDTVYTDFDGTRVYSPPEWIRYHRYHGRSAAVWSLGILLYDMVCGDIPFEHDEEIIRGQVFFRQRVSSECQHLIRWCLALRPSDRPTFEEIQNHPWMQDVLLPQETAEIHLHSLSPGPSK
Description: as §1, §2, §3, §4, §5, §6, §7, §8

MLK1 = target: T36, MLK1 (Homo sapiens, UniProt P80192)
T36 construct: purchased DiscoverX (DiscoveRx) KINOMEscan scanEDGE / KdELECT
T36 sequence (P80192 whole entry): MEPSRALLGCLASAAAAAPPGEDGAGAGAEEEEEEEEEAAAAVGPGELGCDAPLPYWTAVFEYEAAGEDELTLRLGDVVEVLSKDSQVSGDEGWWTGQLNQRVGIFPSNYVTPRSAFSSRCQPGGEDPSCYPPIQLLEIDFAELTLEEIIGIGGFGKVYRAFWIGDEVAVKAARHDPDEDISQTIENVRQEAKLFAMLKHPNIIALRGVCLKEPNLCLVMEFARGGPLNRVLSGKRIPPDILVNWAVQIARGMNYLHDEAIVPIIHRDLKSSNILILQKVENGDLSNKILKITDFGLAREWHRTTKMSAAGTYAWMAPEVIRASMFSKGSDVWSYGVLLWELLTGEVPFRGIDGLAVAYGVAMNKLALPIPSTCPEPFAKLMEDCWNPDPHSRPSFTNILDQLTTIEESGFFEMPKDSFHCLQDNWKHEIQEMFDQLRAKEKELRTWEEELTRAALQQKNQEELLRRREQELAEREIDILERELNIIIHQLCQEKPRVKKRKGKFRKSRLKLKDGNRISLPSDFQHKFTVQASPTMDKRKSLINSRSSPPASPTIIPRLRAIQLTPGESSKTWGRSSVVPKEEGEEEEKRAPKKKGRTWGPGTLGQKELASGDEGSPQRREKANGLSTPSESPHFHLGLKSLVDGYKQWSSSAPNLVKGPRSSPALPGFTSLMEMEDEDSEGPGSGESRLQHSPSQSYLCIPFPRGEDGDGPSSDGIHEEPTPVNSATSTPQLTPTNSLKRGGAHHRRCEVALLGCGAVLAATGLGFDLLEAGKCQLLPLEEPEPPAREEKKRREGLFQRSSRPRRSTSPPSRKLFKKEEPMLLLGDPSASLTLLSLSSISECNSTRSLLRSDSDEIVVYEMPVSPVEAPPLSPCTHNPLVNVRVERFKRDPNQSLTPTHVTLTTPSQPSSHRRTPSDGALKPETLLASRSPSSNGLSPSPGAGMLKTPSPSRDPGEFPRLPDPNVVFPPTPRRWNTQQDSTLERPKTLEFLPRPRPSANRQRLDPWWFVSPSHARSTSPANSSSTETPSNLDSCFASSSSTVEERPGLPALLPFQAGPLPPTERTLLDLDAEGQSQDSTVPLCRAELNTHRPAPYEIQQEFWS
Description: as §1, §2, §3, §4, §5, §6, §7, §8

YANK3 = target: T37, YANK3 (Homo sapiens, UniProt Q86UX6)
T37 construct: purchased DiscoverX (DiscoveRx) KINOMEscan scanEDGE / KdELECT
Description: as §1, §2, §3, §4, §5, §6, §7, §8

PCTK1 = target: T38, PCTK1 (Homo sapiens, UniProt Q00536)
T38 construct: purchased DiscoverX (DiscoveRx) KINOMEscan scanEDGE / KdELECT
Description: as §1, §2, §3, §4, §5, §6, §7, §8

T1 sequence (O14965 whole entry): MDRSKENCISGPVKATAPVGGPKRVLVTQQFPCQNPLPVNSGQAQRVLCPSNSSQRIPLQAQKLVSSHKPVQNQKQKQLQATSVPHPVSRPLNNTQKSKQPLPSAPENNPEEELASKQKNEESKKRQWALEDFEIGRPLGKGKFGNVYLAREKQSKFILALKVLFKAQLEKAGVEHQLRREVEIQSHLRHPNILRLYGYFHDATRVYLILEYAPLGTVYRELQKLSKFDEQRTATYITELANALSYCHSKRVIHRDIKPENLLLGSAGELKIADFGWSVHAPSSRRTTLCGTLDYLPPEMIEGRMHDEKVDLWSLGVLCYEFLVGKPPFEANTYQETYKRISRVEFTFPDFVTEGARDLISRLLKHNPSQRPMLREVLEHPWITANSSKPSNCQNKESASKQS

Row | remaining binding at 1 µM (AURKA) [%] | remaining binding at 1 µM (PAK4) [%] | remaining binding at 1 µM (AKT2) [%] | remaining binding at 1 µM (INSR) [%] | remaining binding at 1 µM (IKKEbeta) [%] | remaining binding at 1 µM (SNARK) [%] | remaining binding at 1 µM (RIPK2) [%] | remaining binding at 1 µM (CHEK1) [%] | remaining binding at 1 µM (MAPKAPK2) [%] | remaining binding at 1 µM (PIK3CA) [%] | remaining binding at 1 µM (PIM2) [%] | remaining binding at 1 µM (BRAF(V600E)) [%] | remaining binding at 1 µM (SRC) [%] | remaining binding at 1 µM (PLK4) [%] | remaining binding at 1 µM (EGFR) [%] | remaining binding at 1 µM [1] [%] | remaining binding at 1 µM (KIT(V559D,T670I)) [%] | remaining binding at 1 µM (LCK) [%] | remaining binding at 1 µM (MET) [%] | remaining binding at 1 µM (JAK2(JH1domain)) [%] | SMILES | further results
1 | 100 | 97 | 86 | 100 | 84 | 100 | 88 | 100 | 96 | 100 | 89 | 58 | 88 | 100 | 71 | 100 | 100 | 98 | 80 | 99 | O=c1c2cc(-c3ccnc4ccccc34)ccc2ncn1-c1ccc(N2CCOCC2)cc1 [compound 16, 3-(4-Morpholinophenyl)-6-(quinolin-4-yl)quinazolin-4(3H)-one] | remaining binding at 1 µM (CSNK1G2): 90%; remaining binding at 1 µM (CDK7): 97%; remaining binding at 1 µM (MEK2): 85%; remaining binding at 1 µM (TRKA): 76%; remaining binding at 1 µM (PDGFRB): 20%; remaining binding at 1 µM (NEK7): 97%; remaining binding at 1 µM (ERBB2): 100%; remaining binding at 1 µM (ACVR2A): 100%; remaining binding at 1 µM (JNK3): 98%; remaining binding at 1 µM (TGFBR1 (ALK5)): 96%; remaining binding at 1 µM (ABL2): 97%; remaining binding at 1 µM (MKNK2): 100%; remaining binding at 1 µM (AURKB): 97%; remaining binding at 1 µM (FYN): 100%; remaining binding at 1 µM (PIM1): 92%; remaining binding at 1 µM (MLK1): 97%; remaining binding at 1 µM (YANK3): 86%; remaining binding at 1 µM (PCTK1): 87%
2 | 100 | 62 | 93 | 93 | 95 | 100 | 68 | 100 | 100 | 100 | 96 | 11 | 98 | 100 | 98 | 97 | 98 | 96 | 88 | 75 | Cc1nc2ccc(-c3ccnc4ccccc34)c(C)c2c(=O)[nH]1 [compound 21, 2,5-Dimethyl-6-(quinolin-4-yl)quinazolin-4(3H)-one] | remaining binding at 1 µM (CSNK1G2): 92%; remaining binding at 1 µM (CDK7): 100%; remaining binding at 1 µM (MEK2): 79%; remaining binding at 1 µM (TRKA): 93%; remaining binding at 1 µM (PDGFRB): 81%; remaining binding at 1 µM (NEK7): 100%; remaining binding at 1 µM (ERBB2): 100%; remaining binding at 1 µM (ACVR2A): 83%; remaining binding at 1 µM (JNK3): 79%; remaining binding at 1 µM (TGFBR1 (ALK5)): 30%; remaining binding at 1 µM (ABL2): 93%; remaining binding at 1 µM (MKNK2): 92%; remaining binding at 1 µM (AURKB): 94%; remaining binding at 1 µM (FYN): 100%; remaining binding at 1 µM (PIM1): 60%; remaining binding at 1 µM (MLK1): 91%; remaining binding at 1 µM (YANK3): 95%; remaining binding at 1 µM (PCTK1): 94%
